Source: patent US10280159B2 (AbbVie Deutschland GmbH & Co. KG, priority 2015, dated 2019)
Structures can show the parent of a compound that is named as a salt.

Columns and labels:
Format in all cases: cell-based
human S1PR5 = biological target: T1, human S1PR5 (Homo sapiens, UniProt Q9H228); experiment: Intracellular Ca2+ release (FLIPR) agonist potency, S1P5; details: recombinant CHO-K1 cells expressing human S1PR5, aequorin, Gq/i5; Calcium 5 FLIPR; read-out: S1P5 EC50 range
T1 construct: host or cells: CHO-K1
T1 sequence (Q9H228 whole entry): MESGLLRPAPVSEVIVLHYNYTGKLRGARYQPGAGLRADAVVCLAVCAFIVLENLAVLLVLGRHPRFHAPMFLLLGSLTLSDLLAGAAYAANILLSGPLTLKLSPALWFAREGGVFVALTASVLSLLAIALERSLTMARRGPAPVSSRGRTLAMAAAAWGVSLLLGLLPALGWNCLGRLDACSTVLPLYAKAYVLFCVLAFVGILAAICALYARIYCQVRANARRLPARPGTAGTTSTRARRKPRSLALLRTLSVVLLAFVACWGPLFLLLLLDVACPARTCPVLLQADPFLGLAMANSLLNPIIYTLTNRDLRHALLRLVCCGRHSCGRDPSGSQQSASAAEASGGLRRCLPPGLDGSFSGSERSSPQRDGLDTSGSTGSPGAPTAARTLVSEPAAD
How it was run: (§1)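 Agonist potency from intracellular Ca²⁺ release measured by FLIPR, with EC50 fitted after normalization to phospho-fingolimod curves. Recombinant CHO-K1 lines co-expressing the respective human S1P receptor, aequorin and Gq/i5.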

human S1PR4 = biological target: T2, human S1PR4 (Homo sapiens, UniProt O95977); experiment: Intracellular Ca2+ release (FLIPR) agonist potency, S1P4; details: recombinant CHO-K1 cells expressing human S1PR4, aequorin, Gq/i5; Calcium 5 FLIPR; read-out: S1P4 EC50
T2 construct: host or cells: CHO-K1
T2 sequence (O95977 1-384): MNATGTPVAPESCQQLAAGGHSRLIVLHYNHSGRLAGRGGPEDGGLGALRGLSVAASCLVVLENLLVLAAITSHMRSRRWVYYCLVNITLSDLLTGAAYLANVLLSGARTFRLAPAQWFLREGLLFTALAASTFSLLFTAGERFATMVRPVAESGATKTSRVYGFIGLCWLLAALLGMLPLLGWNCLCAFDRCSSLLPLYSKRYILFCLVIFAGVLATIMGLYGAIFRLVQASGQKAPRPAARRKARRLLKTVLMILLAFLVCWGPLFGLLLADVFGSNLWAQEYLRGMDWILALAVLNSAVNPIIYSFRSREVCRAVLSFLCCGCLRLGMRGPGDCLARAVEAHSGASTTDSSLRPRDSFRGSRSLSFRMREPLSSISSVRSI
How it was run: as §1

human S1PR1 = biological target: T3, human S1PR1 (Homo sapiens, UniProt P21453); experiment: Intracellular Ca2+ release (FLIPR) agonist potency, S1P1; details: recombinant CHO-K1 cells expressing human S1PR1, aequorin, Gq/i5; Calcium 5 FLIPR; read-out: S1P1 EC50
T3 construct: host or cells: CHO-K1
T3 sequence (P21453 whole entry): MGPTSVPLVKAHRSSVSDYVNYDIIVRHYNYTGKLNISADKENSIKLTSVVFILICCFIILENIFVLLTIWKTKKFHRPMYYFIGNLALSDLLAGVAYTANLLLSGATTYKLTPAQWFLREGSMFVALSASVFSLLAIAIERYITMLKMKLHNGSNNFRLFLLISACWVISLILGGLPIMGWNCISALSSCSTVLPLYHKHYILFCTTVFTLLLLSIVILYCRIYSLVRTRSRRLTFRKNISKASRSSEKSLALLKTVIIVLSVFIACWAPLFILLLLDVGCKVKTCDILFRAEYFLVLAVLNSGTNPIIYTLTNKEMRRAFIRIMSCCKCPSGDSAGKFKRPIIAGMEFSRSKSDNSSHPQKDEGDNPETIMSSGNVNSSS
How it was run: as §1

human S1PR3 = biological target: T4, human S1PR3 (Homo sapiens, UniProt Q99500); experiment: Intracellular Ca2+ release (FLIPR) agonist potency, S1P3; details: recombinant CHO-K1 cells expressing human S1PR3, aequorin, Gq/i5; Calcium 5 FLIPR; read-out: S1P3 EC50
T4 construct: host or cells: CHO-K1
T4 sequence (Q99500 whole entry): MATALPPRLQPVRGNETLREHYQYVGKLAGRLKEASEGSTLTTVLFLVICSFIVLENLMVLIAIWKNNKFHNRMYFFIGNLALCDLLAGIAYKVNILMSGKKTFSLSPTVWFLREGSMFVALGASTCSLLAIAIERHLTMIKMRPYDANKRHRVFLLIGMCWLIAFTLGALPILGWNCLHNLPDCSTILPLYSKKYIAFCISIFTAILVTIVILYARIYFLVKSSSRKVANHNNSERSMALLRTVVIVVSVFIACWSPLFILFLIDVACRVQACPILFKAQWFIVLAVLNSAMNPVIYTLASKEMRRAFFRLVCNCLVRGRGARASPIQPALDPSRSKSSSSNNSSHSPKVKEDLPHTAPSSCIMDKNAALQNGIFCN
Experimental: Agonistic activity was measured using the method described below.
Intracellular Ca^2+ Release
Agonist potency and intrinsic activity was assessed by measurement of intracellular Ca^2+ release. Recombinant CHO-K1 cells (Euroscreen, Brussels, Belgium) expressing human S1PR5, S1PR1, S1PR3 or S1PR4 receptors, aequorin, and GTP binding protein Gq/i5 were cultured using a medium containing nutrient mixture F-12 Ham (Sigma-Aldrich) with 10% FBS, and 100 μg/mL gentamicin and equilibrated at 5% CO2.
Phospho-fingolimod was used as positive control. Antagonists were pre-incubated for 10 min with cells before addition of the agonist (phospho-fingolimod at EC80). Measurements were performed using a fluorometric imaging plate reader FLIPR®tetra (Molecular Devices). Agonist at the human S1P receptors were characterized by deducing EC50 (potency) values from a nonlinear fit to the measured fluorescence raw data after normalization to the reference agonist (phospho-fingolimod) curve.

Compound | EC50 (human S1PR5) | EC50 (human S1PR4) | EC50 (human S1PR1) | EC50 (human S1PR3)
O=C(O)C1CN(C2COc3cc(C#Cc4ccccc4OC(F)F)ccc3C2)C1 (centres unmarked) [Compound 42, 1-(7-((2-(difluoromethoxy)phenyl)ethynyl)chroman-3-yl)azetidine-3-carboxylic acid] | 10 to 100 nM | > 1000 nM | > 1000 nM | > 1000 nM
O=C(O)C1CN(C2COc3cc(C#Cc4c(Cl)cccc4Cl)ccc3C2)C1 (centres unmarked) [Compound 44, 1-(7-((2,6-dichlorophenyl)ethynyl)chroman-3-yl)azetidine-3-carboxylic acid] | 10 to 100 nM | > 1000 nM | > 1000 nM | > 1000 nM
O=C(O)C1CN(C2COc3cc(C#Cc4c(F)cccc4F)ccc3C2)C1 (centres unmarked) [Compound 47, 1-(7-((2,6-difluorophenyl)ethynyl)chroman-3-yl)azetidine-3-carboxylic acid] | 10 to 100 nM | < 1000 nM | > 1000 nM | > 1000 nM
O=C(O)C12CC(NC3COc4cc(OCc5c(Cl)cccc5Cl)ccc4C3)(C1)C2 (centres unmarked) [Compound 48, 3-((7-((2,6-dichlorobenzyl)oxy)chroman-3-yl)amino)-bicyclo[1.1.1]pentane-1-carboxylic acid] | 10 to 100 nM | > 1000 nM | > 1000 nM | > 1000 nM
O=C(O)C1CN(C2COc3cc(-c4ccc(OCc5ccc(Cl)cc5)cc4)ccc3C2)C1 (centres unmarked) [Compound 54, 1-(7-(4-((4-chlorobenzyl)oxy)phenyl)chroman-3-yl)azetidine-3-carboxylic acid] | < 10 nM | > 1000 nM | > 1000 nM | > 1000 nM
O=C(O)C1CN(C2COc3cc(-c4ccc(OCC5CCCCC5)cc4)ccc3C2)C1 (centres unmarked) [Compound 55, 1-(7-(4-(cyclohexylmethoxy)phenyl)chroman-3-yl)azetidine-3-carboxylic acid] | < 10 nM | > 1000 nM | < 1000 nM | > 1000 nM
O=C(O)C1CN(C2COc3cc(-c4ccc(OCc5cccc(F)c5F)cc4)ccc3C2)C1 (centres unmarked) [Compound 56, 1-(7-(4-((2,3-difluorobenzyl)oxy)phenyl)chroman-3-yl)azetidine-3-carboxylic acid] | 10 to 100 nM | > 1000 nM | < 1000 nM | > 1000 nM
CCc1ccccc1COc1ccc2c(c1)OCC(N1CC(C(=O)O)C1)C2 (centres unmarked) [Compound 64, 1-(7-((2-ethylbenzyl)oxy)chroman-3-yl)azetidine-3-carboxylic acid] | 10 to 100 nM | < 1000 nM | > 1000 nM | > 1000 nM
CCc1cccc(F)c1COc1ccc2c(c1)OCC(N1CC(C(=O)O)C1)C2 (centres unmarked) [Compound 65, 1-(7-((2-ethyl-6-fluorobenzyl)oxy)chroman-3-yl)azetidine-3-carboxylic acid] | < 10 nM | < 1000 nM | > 1000 nM | > 1000 nM
O=C(O)C1CN(C2COc3cc(OCc4c(F)cccc4C(F)(F)F)ccc3C2)C1 (centres unmarked) [Compound 66, 1-(7-((2-fluoro-6-(trifluoromethyl)benzyl)oxy)chroman-3-yl)azetidine-3-carboxylic acid] | 10 to 100 nM | < 1000 nM | > 1000 nM | > 1000 nM
O=C(O)C1CN(C2COc3cc(OCc4c(F)cccc4C4CC4)ccc3C2)C1 (centres unmarked) [Compound 67, 1-(7-((2-cyclopropyl-6-fluorobenzyl)oxy)chroman-3-yl)azetidine-3-carboxylic acid] | < 10 nM | < 1000 nM | > 1000 nM | > 1000 nM
O=C(O)C1CN(C2COc3cc(OCc4ccc(Cl)cc4Cl)ccc3C2)C1 (centres unmarked) [Compound 68, 1-(7-((2,4-dichlorobenzyl)oxy)chroman-3-yl)azetidine-3-carboxylic acid] | 100 to 1000 nM | > 1000 nM | > 1000 nM | > 1000 nM
O=C(O)C1CN(C2COc3cc(OCCc4c(Cl)cccc4Cl)ccc3C2)C1 (centres unmarked) [Compound 69, 1-(7-(2,6-dichlorophenethoxy)chroman-3-yl)azetidine-3-carboxylic acid] | 10 to 100 nM | > 1000 nM | > 1000 nM | > 1000 nM
O=C(O)C1CCN(CC2OCCc3cc(OCc4c(Cl)cccc4Cl)ccc32)CC1 (centres unmarked) [Compound 70, 1-((6-((2,6-dichlorobenzyl)oxy)isochroman-1-yl)methyl)piperidine-4-carboxylic acid] | 10 to 100 nM | < 1000 nM | > 1000 nM | > 1000 nM
CCc1cccc(Cl)c1COc1ccc2c(c1)CCC(NCC(=O)O)C2 (centres unmarked) [Compound 73, 2-((6-((2-chloro-6-ethylbenzyl)oxy)-1,2,3,4-tetrahydronaphthalen-2-yl)amino)acetic acid] | < 10 nM | < 1000 nM | < 1000 nM | > 1000 nM
O=C(O)C1CCN(C2CCc3cc(OCc4c(Cl)cccc4Cl)ccc3C2)C1 (centres unmarked) [Compound 74, 1-(6-((2,6-dichlorobenzyl)oxy)-1,2,3,4-tetrahydronaphthalen-2-yl)pyrrolidine-3-carboxylic acid] | < 10 nM | < 1000 nM | > 1000 nM | > 1000 nM
O=C(O)CNC1CCc2cc(OCc3c(Cl)cccc3Cl)ccc2C1 (centres unmarked) [Compound 75, 2-((6-((2,6-dichlorobenzyl)oxy)-1,2,3,4-tetrahydronaphthalen-2-yl)amino)acetic acid] | < 10 nM | < 1000 nM | > 1000 nM | > 1000 nM
O=C(O)[C@H]1C[C@@H](NC2CCc3cc(OCc4c(Cl)cccc4Cl)ccc3C2)C1 (some centres unmarked) [Compound 77, (1 s,3s)-3-((6-((2,6-dichlorobenzyl)oxy)-1,2,3,4-tetrahydronaphthalen-2-yl)amino)cyclobutanecarboxylic acid] | < 10 nM | < 1000 nM | < 1000 nM | > 1000 nM
O=C(O)CC1CN(C2CCc3cc(OCc4c(Cl)cccc4Cl)ccc3C2)C1 (centres unmarked) [Compound 78, 2-(1-(6-((2,6-dichlorobenzyl)oxy)-1,2,3,4-tetrahydronaphthalen-2-yl)azetidin-3-yl)acetic acid] | < 10 nM | < 1000 nM | > 1000 nM | > 1000 nM
O=C(O)[C@H]1C[C@H](NC2CCc3cc(OCc4c(Cl)cccc4Cl)ccc3C2)C1 (some centres unmarked) [Compound 79, (1r,3r)-3-((6-((2,6-dichlorobenzyl)oxy)-1,2,3,4-tetrahydronaphthalen-2-yl)amino)cyclobutanecarboxylic acid] | < 10 nM | < 1000 nM | < 1000 nM | > 1000 nM
O=C(O)CC1CCN(C2CCc3cc(OCc4c(Cl)cccc4Cl)ccc3C2)C1 (centres unmarked) [Compound 80, 2-(1-(6-((2,6-dichlorobenzyl)oxy)-1,2,3,4-tetrahydronaphthalen-2-yl)pyrrolidin-3-yl)acetic acid] | 10 to 100 nM | < 1000 nM | > 1000 nM | > 1000 nM
O=C(O)C1CN(C2COc3cc(CCc4cc(F)cc(F)c4)ccc3C2)C1 (centres unmarked) [Compound 81, 1-(7-(3,5-difluorophenethyl)chroman-3-yl)azetidine-3-carboxylic acid] | 1000 to 10000 nM | > 1000 nM | > 1000 nM | > 1000 nM
CCc1cccc(Cl)c1COc1ccc2c(c1)CCC1C2OCCN1CCC(=O)O (centres unmarked) [Compound 82, 3-(8-((2-chloro-6-ethylbenzyl)oxy)-5,6-dihydro-2H-naphtho[1,2-b][1,4]oxazin-4(3H,4aH,10bH)-yl)propanoic acid hydrochloride] | < 10 nM | < 1000 nM | < 1000 nM | > 1000 nM
O=C(O)COC1CCc2cc(OCc3c(F)ccc(Cl)c3F)ccc2C1 (centres unmarked) [Compound 152, 2-[6-[(3-chloro-2,6-difluoro-phenyl)methoxy]tetralin-2-yl]oxyacetic acid] | < 10 nM | > 1000 nM | > 1000 nM | > 1000 nM
O=C(O)COC1CCc2cc(OCc3cc(OC(F)(F)F)ccc3F)ccc2C1 (centres unmarked) [Compound 161, 2-[6-[[2-fluoro-5-(trifluoromethoxy)phenyl]methoxy]tetralin-2-yl]oxyacetic acid] | 10 to 100 nM | > 1000 nM | > 1000 nM | > 1000 nM
O=C(O)COC1CCc2cc(OCc3c(Cl)cccc3C(F)(F)F)ccc2C1 (centres unmarked) [Compound 167, 2-[6-[[2-chloro-6-(trifluoromethyl)phenyl]methoxy]tetralin-2-yl]oxyacetic acid] | < 10 nM | > 1000 nM | > 1000 nM | > 1000 nM
